Source: patent US10844077B2, “Thiazolyl-containing compounds for treating proliferative diseases” (Dana-Farber Cancer Institute, Inc., priority 2014, dated 2020)
Read-outs that look alike come from different tables or passages of the source.

Columns and labels:
Assay type in all cases: binding
broad panel of kinases [1] = molecular target: broad panel of kinases (Homo sapiens, UniProt Q8IY84); details: NIM1; 1 μM
broad panel of kinases [2] = molecular target: broad panel of kinases (Homo sapiens, UniProt P24723); details: PRKCH; 1 μM
broad panel of kinases [3] = molecular target: broad panel of kinases (Homo sapiens, UniProt P51957); details: NEK4; 1 μM
broad panel of kinases [4] = molecular target: broad panel of kinases (Homo sapiens, UniProt Q9Y2H9); details: MAST1; 1 μM
broad panel of kinases [5] = molecular target: broad panel of kinases (Homo sapiens, UniProt O00444); details: PLK4; 1 μM
broad panel of kinases [6] = molecular target: broad panel of kinases (Homo sapiens, UniProt Q13627); details: DYRK1A; 1 μM
broad panel of kinases [7] = molecular target: broad panel of kinases (Homo sapiens, UniProt Q05397); details: FAK; 1 μM
broad panel of kinases [8] = molecular target: broad panel of kinases (Homo sapiens, UniProt Q06187); details: BTK; 1 μM
broad panel of kinases [9] = molecular target: broad panel of kinases (Homo sapiens, UniProt Q9UPZ9); details: ICK; 1 μM
broad panel of kinases [10] = molecular target: broad panel of kinases (Homo sapiens, UniProt Q9H3Y6); details: SRMS; 1 μM
broad panel of kinases [11] = molecular target: broad panel of kinases (Homo sapiens, UniProt P11362); details: FGFR1; 1 μM
broad panel of kinases [12] = molecular target: broad panel of kinases (Homo sapiens, UniProt P53778); details: p38-gamma; 1 μM
broad panel of kinases [13] = molecular target: broad panel of kinases (Homo sapiens, UniProt Q9HAZ1); details: CLK4; 1 μM
broad panel of kinases [14] = molecular target: broad panel of kinases (Homo sapiens, UniProt Q8IW41)
broad panel of kinases [15] = molecular target: broad panel of kinases (Homo sapiens, UniProt P00519, T315I); details: 1 μM
broad panel of kinases [16] = molecular target: broad panel of kinases (Homo sapiens, UniProt O14730); details: RIOK3; 1 μM
broad panel of kinases [17] = molecular target: broad panel of kinases (Homo sapiens, UniProt P08922); details: ROS1; 1 μM
broad panel of kinases [18] = molecular target: broad panel of kinases (Homo sapiens, UniProt Q9Y2U5); details: MAP3K2; 1 μM
broad panel of kinases [19] = molecular target: broad panel of kinases (Homo sapiens, UniProt Q13188); details: MST2; 1 μM
broad panel of kinases [20] = molecular target: broad panel of kinases (Homo sapiens, UniProt Q9H0K1); details: SIK2; 1 μM
broad panel of kinases [21] = molecular target: broad panel of kinases (Homo sapiens, UniProt Q16513); details: PKN2; 1 μM
broad panel of kinases [22] = molecular target: broad panel of kinases (Homo sapiens, UniProt P17948); details: FLT1; 1 μM
broad panel of kinases [23] = molecular target: broad panel of kinases (Homo sapiens, UniProt P06213); details: INSR; 1 μM
broad panel of kinases [24] = molecular target: broad panel of kinases (Homo sapiens, UniProt P51956); details: NEK3; 1 μM
broad panel of kinases [25] = molecular target: broad panel of kinases (Homo sapiens, UniProt P31749); details: AKT1; 1 μM
broad panel of kinases [26] = molecular target: broad panel of kinases (Homo sapiens, UniProt P0C264); details: SgK110; 1 μM
broad panel of kinases [27] = molecular target: broad panel of kinases (Homo sapiens, UniProt P51451); details: BLK; 1 μM
broad panel of kinases [28] = molecular target: broad panel of kinases (Homo sapiens, UniProt P31751); details: AKT2; 1 μM
broad panel of kinases [29] = molecular target: broad panel of kinases (Homo sapiens, UniProt P57078); details: RIPK4; 1 μM
broad panel of kinases [30] = molecular target: broad panel of kinases (Homo sapiens, UniProt Q9UHD2); details: TBK1; 1 μM
broad panel of kinases [31] = molecular target: broad panel of kinases (Homo sapiens, UniProt O14733); details: MKK7; 1 μM
broad panel of kinases [32] = molecular target: broad panel of kinases (Homo sapiens, UniProt P48729); details: CSNK1A1; 1 μM
broad panel of kinases [33] = molecular target: broad panel of kinases (Homo sapiens, UniProt P09769); details: FGR; 1 μM
broad panel of kinases [34] = molecular target: broad panel of kinases (Homo sapiens, UniProt Q9UKE5); details: TNIK; 1 μM
broad panel of kinases [35] = molecular target: broad panel of kinases (Homo sapiens, UniProt P11309); details: P1M1 (PIM1); 1 μM
broad panel of kinases [36] = molecular target: broad panel of kinases (Homo sapiens, UniProt P52333); details: JAK3(JH1domain-catalytic); 1 μM
broad panel of kinases [37] = molecular target: broad panel of kinases (Homo sapiens, UniProt Q8IYT8); details: ULK2; 1 μM
broad panel of kinases [38] = molecular target: broad panel of kinases (Homo sapiens, UniProt P53355); details: DAPK1; 1 μM

broad panel of kinases (Homo sapiens, UniProt Q06187), sequence (Q06187 2-659 limits assumed): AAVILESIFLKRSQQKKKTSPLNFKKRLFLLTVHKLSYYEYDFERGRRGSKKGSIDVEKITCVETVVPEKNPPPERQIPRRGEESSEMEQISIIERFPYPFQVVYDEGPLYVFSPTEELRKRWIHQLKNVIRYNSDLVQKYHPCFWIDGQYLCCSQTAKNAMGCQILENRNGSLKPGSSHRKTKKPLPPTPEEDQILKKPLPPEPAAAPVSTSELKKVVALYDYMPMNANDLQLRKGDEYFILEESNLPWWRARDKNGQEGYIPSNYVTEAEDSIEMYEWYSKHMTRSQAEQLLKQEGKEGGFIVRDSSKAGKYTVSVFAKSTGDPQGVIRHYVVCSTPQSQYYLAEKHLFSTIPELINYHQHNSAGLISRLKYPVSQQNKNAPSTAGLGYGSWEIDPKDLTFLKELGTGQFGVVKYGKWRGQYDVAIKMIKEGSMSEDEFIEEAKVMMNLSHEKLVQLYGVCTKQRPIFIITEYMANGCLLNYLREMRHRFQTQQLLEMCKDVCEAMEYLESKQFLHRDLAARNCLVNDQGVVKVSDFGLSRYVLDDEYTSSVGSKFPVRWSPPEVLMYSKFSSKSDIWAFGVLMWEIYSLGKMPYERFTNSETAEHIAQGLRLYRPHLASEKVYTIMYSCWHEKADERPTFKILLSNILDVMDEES
broad panel of kinases (Homo sapiens, UniProt P08922), sequence (P08922 28-2347 limits assumed): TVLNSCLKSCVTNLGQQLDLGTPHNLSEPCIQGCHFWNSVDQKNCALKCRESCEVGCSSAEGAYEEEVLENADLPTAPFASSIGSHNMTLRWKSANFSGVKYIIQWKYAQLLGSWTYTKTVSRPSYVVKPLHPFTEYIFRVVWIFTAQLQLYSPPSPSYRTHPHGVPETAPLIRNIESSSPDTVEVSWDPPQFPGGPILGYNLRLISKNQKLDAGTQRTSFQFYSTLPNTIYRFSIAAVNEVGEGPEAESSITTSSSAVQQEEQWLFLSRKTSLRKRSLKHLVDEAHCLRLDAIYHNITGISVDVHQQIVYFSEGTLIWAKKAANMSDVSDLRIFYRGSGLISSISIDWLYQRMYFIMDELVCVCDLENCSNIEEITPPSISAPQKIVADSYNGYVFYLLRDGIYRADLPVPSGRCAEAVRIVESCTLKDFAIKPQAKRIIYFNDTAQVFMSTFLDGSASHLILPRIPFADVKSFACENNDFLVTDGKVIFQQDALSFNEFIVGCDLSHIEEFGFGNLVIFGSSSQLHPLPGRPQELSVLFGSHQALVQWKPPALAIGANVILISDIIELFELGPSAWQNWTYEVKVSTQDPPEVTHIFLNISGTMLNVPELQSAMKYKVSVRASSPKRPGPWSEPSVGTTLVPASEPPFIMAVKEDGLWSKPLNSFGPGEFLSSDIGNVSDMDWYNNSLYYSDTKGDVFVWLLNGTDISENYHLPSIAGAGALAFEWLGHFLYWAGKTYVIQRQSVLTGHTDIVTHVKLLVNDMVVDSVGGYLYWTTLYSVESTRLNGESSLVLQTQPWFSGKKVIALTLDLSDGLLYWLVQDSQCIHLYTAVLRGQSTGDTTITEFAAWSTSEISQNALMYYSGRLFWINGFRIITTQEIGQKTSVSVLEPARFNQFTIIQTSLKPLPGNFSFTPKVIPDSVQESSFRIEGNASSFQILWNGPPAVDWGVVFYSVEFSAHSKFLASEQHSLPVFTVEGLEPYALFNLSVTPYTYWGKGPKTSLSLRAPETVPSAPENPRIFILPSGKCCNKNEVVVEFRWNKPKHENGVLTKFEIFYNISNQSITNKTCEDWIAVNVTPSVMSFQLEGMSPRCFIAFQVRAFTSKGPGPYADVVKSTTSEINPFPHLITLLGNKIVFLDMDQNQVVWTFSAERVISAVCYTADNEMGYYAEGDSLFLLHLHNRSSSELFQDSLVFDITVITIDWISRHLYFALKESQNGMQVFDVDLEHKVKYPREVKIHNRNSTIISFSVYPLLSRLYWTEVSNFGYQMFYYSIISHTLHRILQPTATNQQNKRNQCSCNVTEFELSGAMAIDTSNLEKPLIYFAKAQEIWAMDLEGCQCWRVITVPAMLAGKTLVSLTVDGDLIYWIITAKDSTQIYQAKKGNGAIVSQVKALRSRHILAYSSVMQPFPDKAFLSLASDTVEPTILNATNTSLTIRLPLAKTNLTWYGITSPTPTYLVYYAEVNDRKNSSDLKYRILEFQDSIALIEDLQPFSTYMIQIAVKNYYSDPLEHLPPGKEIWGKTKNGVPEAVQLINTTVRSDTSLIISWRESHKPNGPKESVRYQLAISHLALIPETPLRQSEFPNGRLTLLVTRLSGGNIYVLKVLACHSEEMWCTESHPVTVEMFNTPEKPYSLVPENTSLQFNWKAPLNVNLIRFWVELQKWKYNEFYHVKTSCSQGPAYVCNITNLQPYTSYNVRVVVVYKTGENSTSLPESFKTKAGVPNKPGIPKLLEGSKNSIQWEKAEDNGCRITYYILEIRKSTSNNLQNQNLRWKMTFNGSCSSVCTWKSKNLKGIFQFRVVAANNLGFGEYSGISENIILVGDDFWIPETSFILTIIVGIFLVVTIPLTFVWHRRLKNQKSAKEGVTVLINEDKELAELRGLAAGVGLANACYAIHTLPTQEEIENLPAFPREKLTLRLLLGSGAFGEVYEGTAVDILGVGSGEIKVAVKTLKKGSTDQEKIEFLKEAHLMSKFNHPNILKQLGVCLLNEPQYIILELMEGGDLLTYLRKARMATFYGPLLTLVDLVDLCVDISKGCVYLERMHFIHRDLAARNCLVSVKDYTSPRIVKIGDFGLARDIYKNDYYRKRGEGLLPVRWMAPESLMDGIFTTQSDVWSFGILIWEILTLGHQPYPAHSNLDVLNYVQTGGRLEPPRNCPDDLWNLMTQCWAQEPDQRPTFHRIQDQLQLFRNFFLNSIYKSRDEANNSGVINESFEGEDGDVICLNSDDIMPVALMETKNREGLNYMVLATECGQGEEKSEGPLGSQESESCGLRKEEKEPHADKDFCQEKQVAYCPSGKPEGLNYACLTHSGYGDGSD
broad panel of kinases (Homo sapiens, UniProt P06213), sequence (P06213 28-758 limits assumed): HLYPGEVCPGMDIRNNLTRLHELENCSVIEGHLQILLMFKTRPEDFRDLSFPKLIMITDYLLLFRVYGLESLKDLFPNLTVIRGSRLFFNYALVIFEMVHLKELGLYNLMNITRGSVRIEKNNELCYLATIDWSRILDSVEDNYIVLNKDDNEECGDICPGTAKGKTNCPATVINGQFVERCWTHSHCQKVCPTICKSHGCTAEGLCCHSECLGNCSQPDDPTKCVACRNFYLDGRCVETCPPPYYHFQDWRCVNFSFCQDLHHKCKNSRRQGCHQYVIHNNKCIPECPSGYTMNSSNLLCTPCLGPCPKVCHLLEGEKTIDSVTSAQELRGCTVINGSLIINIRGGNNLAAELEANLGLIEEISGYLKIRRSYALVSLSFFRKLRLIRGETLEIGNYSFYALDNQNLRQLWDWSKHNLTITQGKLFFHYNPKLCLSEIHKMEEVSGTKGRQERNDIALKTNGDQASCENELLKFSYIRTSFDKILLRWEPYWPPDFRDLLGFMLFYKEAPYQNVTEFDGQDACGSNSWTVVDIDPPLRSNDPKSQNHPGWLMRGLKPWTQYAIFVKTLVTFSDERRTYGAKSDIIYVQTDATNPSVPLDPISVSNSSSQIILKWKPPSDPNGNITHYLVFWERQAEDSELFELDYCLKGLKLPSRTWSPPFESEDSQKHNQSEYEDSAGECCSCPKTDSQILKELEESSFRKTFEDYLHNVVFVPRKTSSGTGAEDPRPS
broad panel of kinases (Homo sapiens, UniProt P06213), sequence (P06213 763-1382 limits assumed): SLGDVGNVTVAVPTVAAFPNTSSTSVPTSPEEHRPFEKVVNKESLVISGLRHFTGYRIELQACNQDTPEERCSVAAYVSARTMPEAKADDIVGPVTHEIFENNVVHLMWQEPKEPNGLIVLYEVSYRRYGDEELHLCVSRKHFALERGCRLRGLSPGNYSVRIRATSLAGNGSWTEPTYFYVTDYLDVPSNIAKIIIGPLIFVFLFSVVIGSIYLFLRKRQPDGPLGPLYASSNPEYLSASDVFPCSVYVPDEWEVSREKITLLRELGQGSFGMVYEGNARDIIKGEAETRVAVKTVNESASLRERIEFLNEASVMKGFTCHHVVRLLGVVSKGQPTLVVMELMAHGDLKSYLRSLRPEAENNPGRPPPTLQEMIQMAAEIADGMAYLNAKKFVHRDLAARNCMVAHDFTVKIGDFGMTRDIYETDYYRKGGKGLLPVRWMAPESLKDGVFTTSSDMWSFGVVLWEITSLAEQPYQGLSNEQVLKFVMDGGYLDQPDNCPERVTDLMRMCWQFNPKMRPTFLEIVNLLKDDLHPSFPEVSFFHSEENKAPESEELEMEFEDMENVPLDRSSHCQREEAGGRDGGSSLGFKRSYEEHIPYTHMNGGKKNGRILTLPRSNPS
broad panel of kinases (Homo sapiens, UniProt P48729), sequence (P48729 2-337 limits assumed): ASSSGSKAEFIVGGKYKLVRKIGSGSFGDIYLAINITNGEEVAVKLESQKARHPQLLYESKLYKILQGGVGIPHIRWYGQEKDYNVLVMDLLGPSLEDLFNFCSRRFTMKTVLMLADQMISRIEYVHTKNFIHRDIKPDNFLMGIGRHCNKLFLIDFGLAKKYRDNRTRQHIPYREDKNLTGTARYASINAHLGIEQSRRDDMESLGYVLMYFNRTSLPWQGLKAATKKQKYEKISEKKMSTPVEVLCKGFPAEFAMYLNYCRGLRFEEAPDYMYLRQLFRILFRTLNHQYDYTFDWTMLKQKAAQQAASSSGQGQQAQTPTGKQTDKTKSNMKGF
broad panel of kinases (Homo sapiens, UniProt O14733), sequence (O14733 2-419 limits assumed): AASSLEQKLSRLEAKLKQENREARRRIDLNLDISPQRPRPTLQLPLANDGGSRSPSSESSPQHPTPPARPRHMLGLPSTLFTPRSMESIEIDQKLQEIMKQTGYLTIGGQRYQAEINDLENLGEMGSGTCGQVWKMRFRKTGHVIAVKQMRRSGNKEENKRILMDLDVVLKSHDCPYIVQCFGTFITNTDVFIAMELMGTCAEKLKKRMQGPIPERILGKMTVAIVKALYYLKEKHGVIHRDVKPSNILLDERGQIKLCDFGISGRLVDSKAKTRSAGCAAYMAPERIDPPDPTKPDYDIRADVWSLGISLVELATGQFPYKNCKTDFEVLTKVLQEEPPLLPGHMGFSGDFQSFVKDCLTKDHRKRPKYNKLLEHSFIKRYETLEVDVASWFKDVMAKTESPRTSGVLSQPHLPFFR

Compound | percent of control binding remaining (lower = stronger binding) (broad panel of kinases [1]) | percent of control binding remaining (lower = stronger binding) (broad panel of kinases [2]) | percent of control binding remaining (lower = stronger binding) (broad panel of kinases [3]) | percent of control binding remaining (lower = stronger binding) (broad panel of kinases [4]) | percent of control binding remaining (lower = stronger binding) (broad panel of kinases [5]) | percent of control binding remaining (lower = stronger binding) (broad panel of kinases [6]) | percent of control binding remaining (lower = stronger binding) (broad panel of kinases [7]) | percent of control binding remaining (lower = stronger binding) (broad panel of kinases [8]) | percent of control binding remaining (lower = stronger binding) (broad panel of kinases [9]) | percent of control binding remaining (lower = stronger binding) (broad panel of kinases [10]) | percent of control binding remaining (lower = stronger binding) (broad panel of kinases [11]) | percent of control binding remaining (lower = stronger binding) (broad panel of kinases [12]) | percent of control binding remaining (lower = stronger binding) (broad panel of kinases [13]) | % change compared to control (broad panel of kinases [14]) | percent of control binding remaining (lower = stronger binding) (broad panel of kinases [16]) | percent of control binding remaining (lower = stronger binding) (broad panel of kinases [17]) | percent of control binding remaining (lower = stronger binding) (broad panel of kinases [18]) | percent of control binding remaining (lower = stronger binding) (broad panel of kinases [19]) | percent of control binding remaining (lower = stronger binding) (broad panel of kinases [20]) | percent of control binding remaining (lower = stronger binding) (broad panel of kinases [21]) | other results
C=CC(=O)N1CC[C@H](Nc2nc(CN3CCOCC3)cc(Nc3ncc(C(=O)Nc4c(C)cccc4C)s3)n2)C1 [Example I-2] | 93% | 97% | 100% | 98% | 73% | 100% | 100% | 0% | 86% | 7.6% | 91% | 100% | 94% | 100% | 98% | 97% | 96% | 69% | 92% | 84% | percent of control binding remaining (lower = stronger binding) (broad panel of kinases [15]; ABL1(T315I)-nonphosphorylated): 95%; percent of control binding remaining (lower = stronger binding) (broad panel of kinases [15]; ABL1(T315I)-phosphorylated): 69%; percent of control binding remaining (lower = stronger binding) (broad panel of kinases [22]): 93%; percent of control binding remaining (lower = stronger binding) (broad panel of kinases [23]): 67%; percent of control binding remaining (lower = stronger binding) (broad panel of kinases [24]): 94%; percent of control binding remaining (lower = stronger binding) (broad panel of kinases [25]): 95%; percent of control binding remaining (lower = stronger binding) (broad panel of kinases [26]): 59%; percent of control binding remaining (lower = stronger binding) (broad panel of kinases [27]): 0%; percent of control binding remaining (lower = stronger binding) (broad panel of kinases [28]): 88%; percent of control binding remaining (lower = stronger binding) (broad panel of kinases [29]): 95%; percent of control binding remaining (lower = stronger binding) (broad panel of kinases [30]): 89%; percent of control binding remaining (lower = stronger binding) (broad panel of kinases [31]): 88%; percent of control binding remaining (lower = stronger binding) (broad panel of kinases [32]): 100%; percent of control binding remaining (lower = stronger binding) (broad panel of kinases [33]): 0.1%; percent of control binding remaining (lower = stronger binding) (broad panel of kinases [34]): 97%; percent of control binding remaining (lower = stronger binding) (broad panel of kinases [35]): 97%; percent of control binding remaining (lower = stronger binding) (broad panel of kinases [36]): 0%; percent of control binding remaining (lower = stronger binding) (broad panel of kinases [37]): 89%; percent of control binding remaining (lower = stronger binding) (broad panel of kinases [38]): 100%
C=CC(=O)N1CC[C@H](Nc2nccc(Nc3ncc(C(=O)Nc4c(C)cccc4C)s3)n2)C1 [Example I-3] | 84% | 88% | 100% | 93% | 82% | 100% | 100% | 0.05% | 87% | 12% | 93% | 100% | 85% | 100% | 90% | 90% | 98% | 94% | 98% | 100% | % change compared to control (broad panel of kinases [15]; ABL1(T315I)-nonphosphorylated): 100%; % change compared to control (broad panel of kinases [15]; ABL1(T315I)-phosphorylated): 70%; percent of control binding remaining (lower = stronger binding) (broad panel of kinases [22]): 86%; percent of control binding remaining (lower = stronger binding) (broad panel of kinases [23]): 93%; percent of control binding remaining (lower = stronger binding) (broad panel of kinases [24]): 95%; percent of control binding remaining (lower = stronger binding) (broad panel of kinases [25]): 95%; percent of control binding remaining (lower = stronger binding) (broad panel of kinases [26]): 95%; percent of control binding remaining (lower = stronger binding) (broad panel of kinases [27]): 0%; percent of control binding remaining (lower = stronger binding) (broad panel of kinases [28]): 100%; percent of control binding remaining (lower = stronger binding) (broad panel of kinases [29]): 100%; percent of control binding remaining (lower = stronger binding) (broad panel of kinases [30]): 94%; percent of control binding remaining (lower = stronger binding) (broad panel of kinases [31]): 85%; percent of control binding remaining (lower = stronger binding) (broad panel of kinases [32]): 100%; percent of control binding remaining (lower = stronger binding) (broad panel of kinases [33]): 0%; percent of control binding remaining (lower = stronger binding) (broad panel of kinases [34]): 93%; percent of control binding remaining (lower = stronger binding) (broad panel of kinases [35]): 95%; percent of control binding remaining (lower = stronger binding) (broad panel of kinases [36]): 0%; percent of control binding remaining (lower = stronger binding) (broad panel of kinases [37]): 91%; percent of control binding remaining (lower = stronger binding) (broad panel of kinases [38]): 100%
